Measurements taken from the NIST ThermoML archive (doi:10.1007/s10765-013-1553-5).
± gives the expanded uncertainty stated by the source.

Details: Liquid, Closed cell (Static) method

F/C=C\C(F)(F)F [(Z)-1,3,3,3-tetrafluoro-1-propene]
Details | vapor or sublimation pressure [kPa]
238.13 K | 12 ± 2
243.1 K | 16 ± 2
248 K | 21 ± 2
252.9 K | 27 ± 2
257.81 K | 34 ± 2
263.02 K | 44 ± 2
267.91 K | 55 ± 2
272.83 K | 68 ± 2
277.94 K | 85 ± 2
282.78 K | 102 ± 2
283.15 K | 103 ± 2
285.15 K | 111 ± 2
287.15 K | 120 ± 2
287.62 K | 123 ± 2
289.15 K | 129 ± 2
291.15 K | 139 ± 2
292.62 K | 148 ± 2
293.15 K | 149 ± 2
295.15 K | 160 ± 2
297.15 K | 172 ± 2
298 K | 178 ± 2
299.15 K | 184 ± 2
301.15 K | 198 ± 2
303.15 K | 211 ± 2
303.18 K | 212 ± 2
305.15 K | 225 ± 2
307.15 K | 241 ± 2
308.18 K | 249 ± 2
309.15 K | 256 ± 2
311.15 K | 273 ± 2
313.15 K | 291 ± 2
313.17 K | 291 ± 2
315.15 K | 309 ± 2
317.15 K | 329 ± 2
318.14 K | 338 ± 2
319.15 K | 349 ± 2
321.14 K | 370 ± 2
323.14 K | 392 ± 2
323.15 K | 392 ± 2
325.15 K | 415 ± 2
327.15 K | 439 ± 2
328.12 K | 451 ± 2
329.15 K | 465 ± 2
331.15 K | 491 ± 2
333.11 K | 518 ± 2
333.15 K | 519 ± 2
335.15 K | 548 ± 2
337.15 K | 578 ± 2
338.12 K | 591 ± 2
339.15 K | 609 ± 3
341.15 K | 641 ± 3
343.07 K | 672 ± 3
343.15 K | 675 ± 3
345.15 K | 710 ± 3
347.16 K | 746 ± 3
348.16 K | 764 ± 3
349.15 K | 784 ± 3
351.15 K | 823 ± 3
353.12 K | 861 ± 3
353.16 K | 863 ± 3
358.13 K | 969 ± 3
363.14 K | 1086 ± 3
368.09 K | 1212 ± 3
372.61 K | 1336 ± 4
